Entries after “also recorded” stand apart in the source; their conditions may differ.
Columns and labels:
Format in all cases: cell-based, human
SKOV3 cells = experiment: In vitro wound healing assay (cell migration)
Protocol: Cell migration was assessed using the in vitro wound healing assay. Briefly, cells were grown to confluence and then treated with complex 6. After 24 hours of treatment, the medium was removed and cells were washed then scraped with a pipet tip to create a “wound” in the monolayer and washed again. Fresh medium containing 2% FCS was added. Wounds were photographed at times 0, 24, and 48 hours using an inverted microscope (EclipseTS/100, Nikon, Instruments Europe BV Amsterdam, The Netherlands) at magnification 4. Migration was assessed by measuring the cell-free area (in pixels) with ImageJ-NIH (National Institutes of Health) tool software. The cytoskeleton organization was evaluated by culturing SKOV3 cells onto glass coverslips and performing immunofluorescence staining for α-tubulin and F-actin. SKOV3 cells were treated for 24 hours with complex 6, fixed in 4% paraformaldehyde, permeabilized with 0.5% Triton X-100, and incubated overnight with primary antibody (Table 1) at 4° C. Primary antibody was detected using the appropriate secondary antibody together with phallotoxins (Molecular Probes) and TO-PRO-3 (Thermo Fisher Scientific). Images were acquired using an SP8 confocal microscope (Leica).

A2780cis = experiment: MTT cell viability assay, cisplatin-resistant A2780cis; conditions: for Fold resistance (A2780cis/A2780): IC50 A2780cis/IC50 A2780
Description: Human epithelial ovarian cancer A2780 cell line and its cisplatin-resistant clone A2780cis were obtained from Sigma-Aldrich (Milano, Italy). SKOV3 (HTB-77) cells were from the American Type Culture Collection (ATCC). The two cell lines were selected to reflect the two different stages of OvCa and different sensitivity to cisplatin. A2780 cell lines were derived from the ovarian tumor tissue of an untreated patient, while SKOV3 was from the ascitic fluids (after metastasis). […] Cell lines were cultured in RPMI-1640 medium containing 10% fetal bovine serum (FBS) (Gibco, Thermo Fisher Scientific, U.S.A), 1% (v/v) of penicillin (10,000 units/mL)-streptomycin (10 mg/mL), and 1% (v/v) L-glutamine (200 mM) (all from Sigma- Aldrich) at 37° C. in a 5% CO2 fully humidified atmosphere. […] Cisplatin was included as a reference drug. […] Fold resistance was calculated as the ratio of the IC50 of the A2780cis to that of the parental cell line A2780.

A2780 = experiment: MTT cell viability assay, A2780
Description: Human epithelial ovarian cancer A2780 cell line and its cisplatin-resistant clone A2780cis were obtained from Sigma-Aldrich (Milano, Italy). SKOV3 (HTB-77) cells were from the American Type Culture Collection (ATCC). The two cell lines were selected to reflect the two different stages of OvCa and different sensitivity to cisplatin. A2780 cell lines were derived from the ovarian tumor tissue of an untreated patient, while SKOV3 was from the ascitic fluids (after metastasis). Cells were authenticated in the laboratory using PowerPlex 16 HS system (Promega) and GeneMapper ID version 3.2.1 to identify DNA short tandem repeats. Cell lines were cultured in RPMI-1640 medium containing 10% fetal bovine serum (FBS) (Gibco, Thermo Fisher Scientific, U.S.A), 1% (v/v) of penicillin (10,000 units/mL)-streptomycin (10 mg/mL), and 1% (v/v) L-glutamine (200 mM) (all from Sigma- Aldrich) at 37° C. in a 5% CO2 fully humidified atmosphere. A2780cis cells were continuously exposed to 1 μM cisplatin to maintain cisplatin resistance. Adipose-derived stem cells (ADSCs) were purchased from Lonza and maintained in mesenchymal-stem-cell growth medium Bulletkit MSCGM (Lonza, Verviers, Belgium).
4.0×10^3/mL A2780, A2780cis, and SKOV3 cells were seeded in 96-well microplates in 100 μL of culture medium. Cells were allowed to adhere for 24 hours and then were treated in triplicate with increasing concentrations of gold compounds (0-1 μM). Cisplatin was included as a reference drug. Cell viability was evaluated using 3-(4,5-dimethylthiazol-2-yl)-2,5-diphenyltetrazolium bromide (MTT) assay (Sigma-Aldrich) after 72 hours of treatment. Half maximal inhibitory concentrations (IC50) were calculated using the CalcuSyn software version 2 (Biosoft, Ferguson, MO, USA). Fold resistance was calculated as the ratio of the IC50 of the A2780cis to that of the parental cell line A2780.

SKOV3-MCTSs = experiment: Apoptosis, mitROS and DNA-DSBs in SKOV3-MCTSs
Protocol: To obtain multiple spheroids, 5.0×10^4/mL SKOV3 cells were seeded in nonadherent conditions on poly-HEMA coated wells for 4 days. After drug treatment, viable cells were evaluated using PrestoBlue cell viability reagent (Thermo Fisher Scientific, Frederick, MD, USA) or alternatively trypsinized to a single cell suspension for further analysis.
2.0×10^5/mL A2780 and A2780cis cells were seeded in 6-well plates in complete medium and treated with complex 6 (0.15 μM and 0.5 μM). Results were detected by flow cytometry on a BD FACSCanto II flow cytometer. Data were analyzed using BD FACSDiva version 8.0.1 software (BD Biosciences) unless otherwise indicated. To evaluate apoptosis, tumor cells were treated for 48 hours and then stained for 15 minutes with FITC annexin-V (Thermo Fisher Scientific) and 7AAD (BD Pharmingen). […] For B-cell lymphoma/leukemia-2 (Bcl-2) and Bcl-2 associated x protein (Bax) evaluation, cells were fixed and permeabilized using FIX & PERM cell fixation and cell permeabilization kit (Life Technologies). For ROS generation, cells were stained with 5 μM MitoSOX red mitochondrial superoxide indicator (ThermoFisher Scientific) in a working solution for 30 minutes at 37° C. Cell cycle analysis was performed after 24 hours treatment with complex 6. Cells were harvested, fixed in cold 70% ethanol for 15 minutes, and stained with propidium iodide (PI) solution ([…] PI, 0.1% NP-40, 100 µg/mL PureLink RNase A, 0.1% sodium citrate) for 1 hour. The distribution of cells in different cell cycle phases was quantified using ModFit LT 4.0 software (Verity Software House, Topsham, ME, USA).
Whole-cell lysates were prepared using cold RIPA buffer [150 mM NaCl, 50 mM Tris-HCl (pH 8), 0.1% SDS, 1% Igepal, and 0.5% desoxycholate sodium] containing a protease inhibitor cocktail (Roche Diagnostics S.p.a., Milan, Italy), phosphatase inhibitors 1 mM Na3VO4 and 1 mM NaF (Sigma-Aldrich). Protein concentrations were determined using the BioRad protein assay (Bio-Rad Laboratories, Inc., CA, USA). Equal amounts of proteins were mixed with Laemmli buffer, separated in 4-20% SDS-PAGE (Criterion Precast Gel, BioRad), and blotted onto a nitrocellulose membrane (Amersham, GE Healthcare). Membrane strips were blocked with EveryBilot blocking buffer (Bio-Rad) and incubated at 4° C. overnight with primary antibodies probed with the appropriate antibodies (Table 2) and developed using Immobilon Western chemioluminescent HRP substrate. Images were acquired using a ChemiDoc XRS system (Bio-Rad).

CC(C)c1cccc(C(C)C)c1-n1ccn(-c2c(C(C)C)cccc2C(C)C)[c]1=[Au+][PH](C1CCCCC1)(C1CCCCC1)C1CCCCC1.F[P-](F)(F)(F)(F)F [Complex 6, [Au(IPr)(C18H33P)] PF6]
SKOV3 migration (SKOV3 cells; 24 hours treatment): decreased the SKOV3 migration
Remaining uncovered area (wound) (SKOV3 cells; 48 hours after scratch, highest concentration, control about 5%): ~70%
IC50 (A2780cis; 72 hours treatment, MTT): 120 ± 10 nM
Fold resistance (A2780cis/A2780) (A2780cis): 0.86
Fold resistance (A2780cis/A2780) (A2780cis; listed as complex 6): 0.86
IC50 (A2780; 72 hours treatment, MTT): 140 ± 10 nM
Cytotoxic activity ranking within the series (A2780; A2780 and A2780cis, Table 8): most potent
Activity compared with cisplatin or auranofin in A2780 cells (A2780; comparison of IC50, Table 8): more active than cisplatin; also recorded: more active than auranofin
mitROS generation in SKOV3-MCTSs (SKOV3-MCTSs; 24 hours): increased mitROS generation
Caspase-3,7 activation in SKOV3-MCTSs (SKOV3-MCTSs; FLICA): caused the activation of caspase-3,7
Annexin-V+ cells in SKOV3-MCTSs (SKOV3-MCTSs; annexin-V-FITC/7AAD, flow cytometry): caused an increase of annexin-V+ cells
DNA-DSBs (γH2AX) in SKOV3-MCTSs (SKOV3-MCTSs; western blot): induced DNA-DSBs

Source: patent publication US20250057959A1, “PHOSPHANE GOLD(I)-N-HETEROCYCLIC CARBENE COMPLEXES FOR TREATING CANCER” (KING FAHD UNIVERSITY OF PETROLEUM AND MINERALS, priority 2023, published 2025)
